Measured values published in US20230126310A1 (priority 2020, published 2023).
Structures can show the parent of a compound that is named as a salt. Where two headings read alike, the source gives them in different places. Square brackets hold non-standard residues; d marks the D form. Peptide text beside a SMILES is read from it. NMeF = CN[C@@H](Cc1ccccc1)C(=O)O

System: SARS-CoV-2

Row | Molecule | % Inh. (% Inhibition of SARS-CoV-2) (10 µM) [%] | further results
1 | COCc1c(-c2ccc(NC(=O)Nc3cc(C(F)(F)F)ccc3F)c(F)c2)c2c(N)ncnn2c1CN1CCOCC1 [ACTB-1003] | 97.7 | 
2 | CC(C)(C)c1ccc(-c2nc3c(N4CCN(Cc5ccc6nccnc6c5)CC4)cccc3[nH]2)cc1 [WAY-207024] | 77.1 | 
3 | CCOc1ccc(Nc2nc(-c3c(C)nc4ccccn34)cs2)cc1 [JK-184] | 65.2 | 
4 | COCCN1CCN(Cc2ccc(-c3n[nH]c4c3C(=O)c3c(NC(=O)NN5CCOCC5)cccc3-4)cc2)CC1 [RGB-286638 (free base)] | 70.2 | 
5 | CC(C)(C)c1cc(O)c(C(C)(C)C)cc1O [BHQ] | 50.6 | 
6 | O=C(NNc1nc2cc(F)ccc2n2cccc12)c1cnccn1 [SC144] | 108.7 | 
7 | FC(F)(F)c1cc(CO[C@H]2CCCN[C@H]2c2ccccc2)cc(C(F)(F)F)c1 [L-733060] | 53.9 | 
8 | O=C(/C=C/c1ccc2ccccc2n1)c1ccncc1 [PFK-015] | 101.3 | IC50: 7.03 µM; pIC50: 5.15
9 | CN1c2cc3c(cc2N=C(c2ccc(C(=O)O)cc2)c2ccccc21)C(C)(C)CCC3(C)C [LE-135] | 105.5 | 
10 | Cl.O.O=CN1CCC(C(=O)NCCN2CCC(=C3c4ccccc4C=Cc4ccccc43)CC2)CC1 [AT-1015] | 75.4 | 
11 | Lasofoxifene (Tartrate) | 54.3 | 
12 | O=[N+]([O-])c1ccccc1S(=O)(=O)NCC1CCC(CNC[C@H]2CCc3ccccc3C2)CC1 (some centres unmarked) [NTNCB] | 92.7 | 
13 | CCc1ccccc1OC[C@@H](O)CN[C@H]1CCCc2ccccc21 [SR-59230A] | 57.3 | 
14 | COc1cc2c(cc1OC)CN(C(=O)/C=C/c1c(-c3ccccc3)n(C)c3ncccc13)CC2 [SIS3] | 99.3 | 
15 | Nizofenone fumarate | 52.4 | 
16 | COc1cc(N2CCC(N)CC2)ccc1Nc1ncc(Cl)c(-c2c[nH]c3ccccc23)n1 [AZD3463] | 96.5 | 
17 | Cc1ncc(-c2ccnc(Nc3ccc(S(C)(=O)=O)cc3)n2)n1C(C)C [AZD5438] | 67.2 | 
18 | GSK9027 | 64.1 | 
19 | COc1cc(/C=C2\CCCN([C@@H](C)c3ccc(F)cc3)C2=O)ccc1-n1cnc(C)c1 [E 2012] | 100.8 | 
20 | Cc1cc(C)c(NC(=O)C2CC3CCC2C3)c(C)c1 (centres unmarked) [ML-213] | 69.5 | 
21 | CC(C)(Cc1ccc2ccccc2c1)NC[C@@H](O)COc1cccc(Cl)c1C#N [NPS-2143 (SB262470)] | 67.3 | 
22 | CCOc1cc(C(=O)Nc2ccc(Cl)c(-c3nc4ccccc4[nH]3)c2)cc(OCC)c1OCC [SANT-2] | 84.1 | 
23 | CNC(=O)c1cccc(NC(=O)N2CCC(Oc3ccccc3Cl)CC2)c1 [A-939572] | 78.8 | 

Row | Molecule | % Inh. (% Inhibition of SARS-CoV-2) (10 µM) [%] | further results
24 | COc1cccc(-c2cc(F)ccc2[C@H]2Cc3nc(N)nc(C)c3C(=O)N2)n1 [NVP-HSP990] | 100.4 | 
25 | CC[N+](C)(CC)CCC[n+]1c(-c2ccccc2)c2cc(N)ccc2c2ccc(N)cc21.[I-].[I-] [propidium-iodide] | 69.7 | 
26 | I-BET151 (GSK1210151A) | 56.0 | 
27 | CN([C@@H](Cc1ccc(OS(=O)(=O)c2cccc3cnccc23)cc1)C(=O)N1CCN(c2ccccc2)CC1)S(=O)(=O)c1cccc2cnccc12 [KN-62] | 96.5 | 
28 | O=C(O)[C@]1(Cc2cccc(Nc3nccs3)n2)CC[C@@H](Oc2cccc(Cl)c2F)CC1 [MK-5108 (VX-689)] | 77.9 | 
29 | Fc1ccc(Cl)cc1-c1nc(Nc2ccncc2)c2nccnc2n1 [SD-208] | 55.1 | 
30 | Cc1c(Cn2c(C)nc3c(C(=O)O)cc(N4CCOCC4)cc32)cccc1C(F)(F)F [GSK2636771] | 88.1 | 
31 | c1cncc(CN2CCC(n3ncc4c(N5CCOCC5)nc(-c5ccc6[nH]ccc6c5)nc43)CC2)c1 [WAY-600] | 99.1 | 
32 | CSc1ccccc1Nc1nc(N2CCNCC2)nc2c(NCC3CC3)ncnc12 [KHK-IN-1 (hydrochloride)] | 71.8 | 
33 | COc1ccc(C[C@H]2NC[C@H](O)[C@H]2OC(C)=O)cc1 [anisomycin] | 88.1 | 
34 | Cc1cc(I)ccc1Nc1c(C(=O)NOCC2CC2)cc(F)c(F)c1F [PD-198306] | 51.6 | 
35 | O=C1NC(=O)c2cc(Nc3ccc(F)cc3)c(Nc3ccc(F)cc3)cc21 [CGP-53353] | 86.1 | 
36 | CNS(=O)(=O)Nc1nccc(Cc2c(C)c3ccc(Oc4ncccn4)cc3oc2=O)c1F [RO5126766 (CH5126766)] | 102.6 | IC50: 5.36 µM; pIC50: 5.27
37 | CC(C)(NS(=O)(=O)c1ccc(Oc2ccc(F)cc2)cc1)C(=O)NO [CP-471474] | 86.9 | 
38 | COc1ccc2nc3cc(Cl)ccc3c(Nc3cc(CN4CCCC4)c(O)c(CN4CCCC4)c3)c2n1.O=P(O)(O)O.O=P(O)(O)O.O=P(O)(O)O.O=P(O)(O)O [PYRONARIDINE TETRAPHOSPHATE] | 80.6 | 
39 | OCCCNc1cc(-c2ccnc(Nc3cccc(Cl)c3)n2)ccn1 [CGP-60474] | 54.4 | 
40 | C=C1/C(=C\C=C2/CCC[C@]3(C)[C@@H]([C@H](C)/C=C/[C@H](C)C(C)(C)O)CC[C@@H]23)C[C@@H](O)C[C@@H]1O [Ercalcitriol] | 86.9 | 
41 | O=C1Nc2ccc(Cl)c3c2C1(CCCCN1CC=C(c2ccc(Cl)cc2)CC1)CCC3 (centres unmarked) [DR-4485] | 82.8 | 
42 | CC(=O)[C@@]12O[C@](C)(c3ccccc3)O[C@@H]1C[C@H]1[C@@H]3CCC4=CC(=O)CC[C@]4(C)[C@H]3CC[C@@]12C [algestone-acetophenide] | 96.0 | 
43 | Cc1cccc(CC(=O)N2CCc3c2ccc(-c2cn(C)c4ncnc(N)c24)c3F)n1 [GSK2656157] | 95.0 | 
44 | c1ccc2nc(C3=NCCN3)cnc2c1 [BU-239] | 60.1 | 
45 | CSCC[C@H](NC(=O)[C@H](CC(C)C)NC(=O)[C@@H](Cc1c[nH]c2ccccc12)NC(=O)[C@H](Cc1ccccc1)N(C)C(=O)[C@@H](Cc1c[nH]c2ccccc12)NC(=O)[C@@H](N)CCCNC(=N)N)C(N)=O [Antagonist-G] (H-R[dW][NMeF][dW]LM-NH2; N-terminus and C-terminus assumed) |  | % Inh. (% Inhibition of SARS-CoV-2) (48 h, 10 μM): 58.0%
46 | Tocofersolan | 95.2 | 

Row | Molecule | % Inh. (% Inhibition of SARS-CoV-2) (10 µM) [%] | further results
47 | O=S(=O)(NCCCCCCc1ccccc1)c1cccc2c(Cl)cccc12 [SC-9] | 83.4 | 
48 | COc1cc2cc(c1Cl)N(C)C(=O)C[C@H](OC(=O)C(C)C)[C@]1(C)O[C@@H]1[C@H](C)[C@@H]1C[C@@](O)(NC(=O)O1)[C@H](OC)/C=C/C=C(\C)C2 [Ansamitocin P-3] | 62.6 | 
49 | NC(=O)N/N=C/c1ccc(Oc2ccc(F)cc2)cc1 [co-102862] | 55.2 | 
50 | CC(C)n1nc(-c2ccc3oc(N)nc3c2)c2c(N)ncnc21 [INK 128 (MLN0128)] | 84.9 | 
51 | COc1c(C)cnc(Cn2cc(C#CCC(C)(C)O)c3c(Cl)nc(N)nc32)c1C [EC-144] | 95.0 | 
52 | O=C1NC(=O)c2cc(Nc3ccccc3)c(Nc3ccccc3)cc21 [CGP-52411] | 94.5 | 
53 | CCN1CCN(Cc2ccc(C(=O)Nc3ccc(C)c(Oc4ccc5c(c4)CC(=O)N5)c3)cc2C(F)(F)F)CC1 [DDR1-IN-1] | 77.6 | 
54 | O=C(Nc1cnccc1Cl)N1CCN(Cc2ccc3c(c2)OC(F)(F)O3)CC1 [JNJ-42165279] | 94.9 | 
55 | CN1C/C=C/CCOc2cccc(c2)-c2ccnc(n2)Nc2cccc(c2)C1 [SB1317] | 56.5 | 
56 | COc1ccc2nc3c(c(N)c2c1)CCCC3 [7-methoxytacrine] | 58.7 | 
57 | CC1CCN(C(c2ccc(F)cc2)c2ccc(C(C)C(=O)O)cc2-c2ccc(C(F)(F)F)cc2)CC1 (centres unmarked) [TC-E-5006] | 94.1 | 
58 | CC[C@H](CO)Nc1nc(NCc2ccc(-c3ccccn3)cc2)c2ncn(C(C)C)c2n1 [CR8-(R)] | 76.6 | 
59 | CCCCCCCCCCCCCCCc1cccc(OCC(=O)NCCO)c1 [PDP-EA] | 65.3 | 
60 | CCc1nc2ccc(Cl)cn2c1C(=O)NCc1ccc(N2CCC(c3ccc(OC(F)(F)F)cc3)CC2)cc1 [Q-203] | 96.9 | 
61 | CN(C)CCNc1nc2cc(O)ccc2c2c1C(=O)c1ccccc1-2.Cl.Cl [TAS-103 (dihydrochloride)] | 92.6 | 
62 | hemin | 62.9 | 
63 | CCc1c2c(nc3ccc(O)cc13)-c1cc3c(c(=O)n1C2)COC(=O)[C@]3(O)CC [SN-38] | 79.2 | 
64 | N#CC(=C(N)Sc1ccc(N)cc1)c1ccccc1C(F)(F)F [MEK1-2-inhibitor] | 66.9 | 
65 | CNCc1ccc(C)c(NC(=O)c2ccc(Nc3nc(-c4ccccc4)c4ccccc4n3)cc2)c1 [BMS-833923 (XL139)] | 68.8 | 
66 | Exatecan Mesylate | 70.1 | 
67 | Cc1ccccc1C(=O)c1ccc(Nc2ccc(Br)cc2N)cc1Cl [EO-1428] | 66.1 | 
